Data as given in patent US11446282B2, “Methods of treating mixed dyslipidemia and hypertriglycertdemia” (Kowa Company, Ltd., priority 2017, dated 2022).

Key:
[1] = tested on: apolipoprotein (Apo) A1 transgenic mice; assay: TG decrease and HDL-C increase in Apo A1 transgenic mice; assay type: in vivo; details: versus fenofibrate
[2] = tested on: European patients; assay: Study K-877-201, Phase 2 dose-finding study conducted in Europe; assay type: in vivo, human
Description: (§1) In previous clinical trials, pemafibrate has been administered at doses ranging from 0.1 mg to 1.6 mg per day in healthy adults. Doses up to 0.4 mg per day have been administered in patients with dyslipidemia. […] Increases in LDL-C, both by beta quantification and calculation with the Friedewald equation, were also observed. Based on analysis of efficacy variables, pemafibrate appeared to have a lowering effect on Apo C3 that led to the conversion of VLDL particles to LDL particles, increasing the fraction of larger LDL particles, and reducing TG levels. Similarly, the reduction of Apo C3 led to increased removal of remnant-like particles and lowering of Apo B48. […] The observed increases in Apo A1 and HDL-C resulted from both increased production of Apo A1 in the liver and increased turnover of TG-rich lipoproteins, both of which were associated with a decreased CHD risk.

[3] = tested on: patients with dyslipidemia; assay: Previous clinical trials of pemafibrate (healthy adults, patients with dyslipidemia); assay type: in vivo, human
Description: as §1
Because the urinary excretion of pemafibrate is low, as shown by nonclinical and clinical studies, it is expected that pemafibrate can be used safely even in patients with renal impairment. In addition, because the drug has minimal inhibitory effects on major drug metabolizing enzymes in the liver, it is unlikely to cause drug-drug interactions; however, drugs which are strong organic anion-transporting polypeptide (OATP) inhibitors (e.g., cyclosporine and rifampin) do interact with pemafibrate.

[4] = Study K-877-12, pharmacokinetics in patients with renal impairment; assay type: in vivo, human; details: Japanese patients with renal impairment, even severe
[5] = tested on: dyslipidemic patients with renal impairment; assay: Example 3 phase III 52-week trial: adverse events and adverse drug reactions; assay type: in vivo, human
Description: This was a multicenter, single-arm, open-label, phase III trial. The inclusion criteria were as follows: (1) patients with dyslipidemia aged >20 years at the time of informed consent; (2) men and postmenopausal women; (3) fasting serum TG≥1.70 mmol/L (150 mg/dL) at two consecutive measurements during screening; and (4) patients who followed dietary and physical exercise guidance for >12 weeks before enrollment.
During the screening period (8 weeks prior to treatment initiation), tests were performed twice to determine patient eligibility. Thereafter, eligible patients orally received pemafibrate 0.2 mg/day (twice daily) for 52 weeks. From week 12 of the treatment period onwards, the investigators were instructed that the dose could be increased from 0.2 mg/day to 0.4 mg/day (twice daily) if there was an inadequate response to the initial dose based on fasting serum TG levels ≥1.70 mmol/L (150 mg/dL). Fasting blood and urine samples were collected at each visit. Blood and urine sample in patients with hemodialysis were collected just before dialysis. LDL-C levels were measured using the direct method. Lipoprotein fractions were measured by HPLC at baseline and weeks 12 and 40.
The primary efficacy endpoint was the percent change in fasting serum TG from baseline to the last evaluation point. The primary safety endpoints were the incidence of an AE or ADR occurring after drug administration during the study. Secondary efficacy endpoints included percent changes in lipid variables and changes in inflammation variables at week 52 [using the last-observation-carried-forward (LOCF)]. Secondary safety endpoints included changes in the levels of aspartate aminotransferase (AST), ALT, -GT, ALP, serum creatinine, eGFR, and CK at week 52. […]
The numbers of patients with AEs and ADRs and the incidences of AEs and ADRs were calculated in the analysis of primary safety endpoints. […] The secondary safety endpoints were analyzed with Wilcoxon signed-rank tests. […] Where indicated, the data are expressed as means±standard deviation (SD).

[6] = baseline to Week 12, last observation carried forward

In the case of `CC[C@@H](Oc1cccc(CN(CCCOc2ccc(OC)cc2)c2nc3ccccc3o2)c1)C(=O)O` [Pemafibrate, (2R)-2-[3-({1,3-benzoxazol-2-yl[3-(4-methoxyphenoxy)propyl]amino}methyl)phenoxy]butanoic acid], the “potency in decreasing TG and increasing HDL-C” value [1] is reported as “more potent than fenofibrate”, the “placebo-adjusted TG reduction” value ([2]; 0.2 mg twice daily) is reported as 54.4% and the “Apo A1 change” value [2, 6] is reported as “increases”. The “Apo A2 change” value [2, 6] was “increases”, the “Apo B48 change” value [2, 6] was “decreases” and the “Apo C2 change” value [2, 6] was “decreases”. The “Apo C3 change” value [2, 6] was “decreases”, the FGF21 change [2, 6] was “increases” and the HDL-C change [2, 6] was “increases”. For the same molecule, the VLDL-C change [2, 6] was “decreases”, the LDL-C change ([2]; by beta quantification and Friedewald equation) was “Increases” and the non-HDL-C change ([2]; in vivo) was “decrease”. For the same molecule, the “total Apo B levels change” value ([2]; in vivo) was “no changes”, the “efficacy in TG reduction and HDL-C elevation” value ([2]; twice daily compared to once daily) was “Greater efficacy” and the TG change ([3]; Japanese and European patients) was “dose-dependent decreases”. The safety profile ([3]; total daily doses 0.1 mg to 0.4 mg, daily or divided twice daily) was “acceptable safety profile”, the “differences in pharmacokinetics (PK) with renal impairment” value [4] was “no meaningful differences” and the “incidence of adverse drug reactions” value ([5]; 0.2 (0.4) mg/day, 52 weeks) was 31.7%. The “incidence of adverse events” value ([5]; 0.2 (0.4) mg/day, 52 weeks) was 82.0% and the “association of adverse event and adverse drug reaction incidences with baseline eGFR” value ([5]; in vivo) was “not associated”.
